Measured values from PMC11605291 (Frontiers in Pharmacology, 2024).

Tests used:
[1] = Metabolite profiling and identification in plasma, urine and feces (LC/RAM/MS); type: in vivo, human; settings: for Plasma %AUC (percentage of total plasma radioactivity): AUC-pooled 0–72 h plasma; for Plasma %AUC (percentage of total plasma radioactivity) / Urine %Dose / Feces %Dose: mean of 6 subjects; for Urine %Dose: pooled 0–72 h urine, total in urine 37.15%; for Feces %Dose: pooled 0–168 h feces, total in feces 62.08%
Method: The plasma samples from six subjects were pooled individually according to the AUC method to obtain 6 plasma samples of 0–72 h ([Hop et al., 1998]). A portion of the proportionally mixed plasma sample was taken and added to a certain volume of acetonitrile (3×, v/v) for extraction, vortexed for 1 min, shaken for 10 min and then stored in a refrigerator at 4°C for 30 min, the mixture was removed and vortexed for 2 min and then centrifuged for 10 min at 10,000×g and 4°C. The residue from the extraction was firstly ultrasonically suspended using 1 mL of ultrapure water and then extracted using methanol (2×, v/v) and repeated twice. The organic solvent extracts were combined, blown dry with nitrogen and reconstituted with acetonitrile: ultrapure water (1:1), the reconstituted solution was centrifuged at 4°C and 10,000×g for 10 min, and the supernatant was used for radio-metabolite profiling.
The radioactivity in the organic solvent extract and the reconstitution solution was determined by LSC. The solid residue after extraction was dissolved by heating with 1N KOH solution and added to the scintillation solution to determine its radioactivity. All the final data were used to examine the recovery of radioactivity during plasma extraction.
The urine samples from the six subjects were mixed in the same volume percentage to obtain six 0–72 h urine samples. A portion of the proportionally mixed urine sample was centrifuged for 10 min at approximately 10,000×g and 4°C. Two samples were taken before and after centrifugation, and the radioactivity of the samples was determined by LSC, and the data obtained were used to calculate the recovery of radioactivity during the centrifugation process. A portion of the supernatant after centrifugation was used directly for radio-metabolite profiling.
The fecal samples from the six subjects were mixed with the same weight percentage to obtain 6 fecal homogenate samples of 0–168 h. A portion of the proportionally mixed fecal homogenate samples was taken and extracted by adding a volume of acetonitrile (3×, v/v), vortexed for 5 min at room temperature, sonicated for 5 min and then centrifuged for 10 min at 10,000 × g and 4°C. The residue of the extracted material was firstly sonicated and mixed using about 1 mL of ultrapure water before extracted using methanol (2×, v/v). The process was repeated twice and the organic extracts were combined, blown dry using nitrogen and then reconstituted with dimethyl sulfoxide: acetonitrile: ultrapure water (3:2:5), the reconstituted solution was centrifuged at 10,000×g at 4°C for 10 min and the supernatant was used for radio-metabolite profiling. […] LSC was used to determine the intensity of radioactivity contained in the organic solvent extract and in the reconstituted solution. The solid residue after extraction is fully combusted by an oxidative combustor, and the [^14C]carbon dioxide produced by combustion of the sample is captured with a scintillation solution to determine its radioactivity intensity. All final data were used to examine the extraction and recovery of radioactivity from fecal homogenate samples.
A high performance liquid chromatograph coupled with an online isotope detector and mass spectrometry (LC/RAM/MS) was used for the identification of radioactive metabolite profiles. The HPLC method consisted of an HPLC system (Shimadzu UFLC-20A-Lite), a chromatographic column (ACE Excel 3 C18, 150 × 4.6 mm id), mobile phase A (0.4% aqueous formic acid, pH = 3.2 adjusted with ammonia) and mobile phase B (acetonitrile) at a flow rate of 0.7 mL/min. The gradient was 0% B for the 0–5 min, 20% B from 15 min to 30 min, 22% B from 32 to 40 min, and 70%–100% B from 60 to 72 min. The column temperature was 28°C. […]

[2] = test system: cDNA-expressed recombinant human cytochrome P450s and silensomes as well as human liver microsomes with selective chemical CYP inhibitors; set-up: method as in unpublished data; settings: conducted in Hutch-Med DMPK department ref unpublished data; cited from earlier work

| SMILES | F: %Dose in feces (Figure 4) [1] | P: %AUC in plasma (Figure 4) [1] | U: %Dose in urine (Figure 4) [1] | Plasma %AUC (percentage of total plasma radioactivity) [1] | Urine %Dose [1] | Feces %Dose [1] | enzyme involved in the formation of the metabolite from amdizalisib [2] | %Dose in pooled feces ([1]; subject 01001) [%Dose] | %Dose in pooled feces ([1]; subject 01002) [%Dose] | %Dose in pooled feces ([1]; subject 01003) [%Dose] | %AUC in AUC-pooled plasma ([1]; subject 01004) [%AUC] | %Dose in pooled feces ([1]; subject 01004) [%Dose] | %AUC in AUC-pooled plasma ([1]; subject 01005) [%AUC] | %Dose in pooled feces ([1]; subject 01005) [%Dose] | %AUC in AUC-pooled plasma ([1]; subject 01006) [%AUC] | %Dose in pooled feces ([1]; subject 01006) [%Dose] | also measured |
| --- | --- | --- | --- | --- | --- | --- | --- | --- | --- | --- | --- | --- | --- | --- | --- | --- | --- |
| CC(=O)c1cc2ncc(Cl)n2nc1-c1ccccc1 [M271] | + | + | + | detected by mass spectrometry, but could not be quantified and + | detected by mass spectrometry, but could not be quantified and + | detected by mass spectrometry, but could not be quantified and + |  |  |  |  |  |  |  |  |  |  |  |
| C[C@H](Nc1ncnc(N)c1C#N)c1cc2ncc(Cl)n2nc1-c1ccc(O)cc1 [M406-1] | 5.06% | 0.12% |  | 0.12 %AUC |  | 5.06 %Dose | formed primarily by CYP2C9 | 4.78 | 5.18 | 5.65 | 0.16 | 6.15 | 0.26 | 4.03 | 0.27 | 4.54 |  |
| C[C@H](Nc1nc(O)nc(N)c1C#N)c1cc2ncc(Cl)n2nc1-c1ccccc1 [M406-2] | 11.30% | 20.91% | 8.08% | 20.91 %AUC | 8.08 %Dose | 11.30 %Dose | aldehyde oxidase | 9.93 | 13.05 | 10.17 | 16.67 | 5.32 | 20.09 | 14.97 | 36.04 | 14.33 | contribution to amdizalisib metabolism ([1]; estimated from the metabolite amounts in excreta): around 20%; %AUC in AUC-pooled plasma ([1]; subject 01001): 16.31 %AUC; %Dose in pooled urine ([1]; subject 01001): 8.77 %Dose; %AUC in AUC-pooled plasma ([1]; subject 01002): 16.12 %AUC; %Dose in pooled urine ([1]; subject 01002): 9.03 %Dose; %AUC in AUC-pooled plasma ([1]; subject 01003): 20.20 %AUC; %Dose in pooled urine ([1]; subject 01003): 8.92 %Dose; %Dose in pooled urine ([1]; subject 01004): 7.29 %Dose; %Dose in pooled urine ([1]; subject 01005): 6.50 %Dose; %Dose in pooled urine ([1]; subject 01006): 7.98 %Dose |
| C[C@H](Nc1ncnc(N)c1C(N)=O)c1cc2ncc(Cl)n2nc1-c1ccccc1 [M408] | 1.04% | + | + | detected by mass spectrometry, but could not be quantified and + | detected by mass spectrometry, but could not be quantified and + | 1.04 %Dose |  | 0.40 | 0.91 | 2.11 |  | 0.69 |  | 1.53 |  | 0.60 |  |
